In US7332476B2, “Pyridyl substituted ketolide antibiotics” (Novartis AG, priority 2003, dated 2008):
In brackets after ≈: the same amount, converted by molar mass.

What was measured:
Assay in all cases: MIC, broth microdilution (NCCLS)
[1] = system: Enterococcus faecalis Enfa_29212; format: cell-based; details: Table 7, Strain ID D (Table 6): E. faecalis Enfa_29212
Protocol: (§1) Strains. The bacterial isolates listed in Table 4 were cultivated from −70° C. frozen stocks by two consecutive overnight passages (P1, P2) at 35° C. on 5% blood agar (Remel, Lenexa, Kans.). Chocolate agar (Remel) is used for Haemophilus influenzae. H. influenzae and Streptococcus pneumoniae are incubated in 5-10% CO2
(§2) Drug Stock Preparation. To determine the amount of solvent to be used to give the desired final concentration, the formula “weight obtained in mg/final concentration in mg/ml” will be used. It will give the amount of solvent in ml needed to be added to give the desired concentration. For example, if 2.5 mg/ml is the desired concentration and the weight of compound is 13.7 mg, then the amount of solvent to be added is […]. Methanol is used as the solvent to dissolve the test compounds. Further dilution of stock is done in sterile, deionized water. Drug stocks are kept frozen at −70° C., protected from light.
(§3) Susceptibility Testing. MICs are determined by the broth microdilution method in accordance with the NCCLS guidelines. In brief, organism suspensions are adjusted to a 0.5 McFarland standard to yield a final inoculum between 3×10^5 and 7×10^5 CFU/ml. Drug dilutions and inocula are made in sterile, cation adjusted Mueller-Hinton Broth (CAMHB) (Remel) for all but S. pneumoniae [CAMHB with 2-5% lysed horse blood (Remel)] and H. influenzae [Haemophilus Test Medium (Remel)]. An inoculum volume of 100 μl is added to wells containing 100 μl of broth with 2-fold serial dilutions of drug. All inoculated microdilution trays are incubated in ambient air at 35° C. for 18-24 hours, except for S. pneumoniae, and H. influenzae (both at 5-10% CO2).
(§4) Following appropriate incubation, the MIC is determined and the MIC is defined as the lowest concentration of the drug that prevented visible growth.
as §1, with “8” for “4”
(§5) Following appropriate incubation, the MIC is determined and the MIC is defined as the lowest concentration of the drug that prevented visible growth. […] Antibacterial activity of representative compounds of the invention were compared against telitromycin.

[2] = system: Haemophilus influenzae Hain_49247; format: cell-based; details: Table 7, Strain ID M (Table 6): H. influenzae Hain_49247; unit assumed
Protocol: as §1, §2, §3, §4
as §1, with “8” for “4”
as §5

[3] = system: Staphylococcus aureus Stau_29213; format: cell-based; details: Table 7, Strain ID A (Table 6): S. aureus Stau_29213; in µg/mL (unit assumed)
Protocol: as §1, §2, §3, §4
as §1, with “8” for “4”
as §5

[4] = system: Staphylococcus epidermidis Step_14990; format: cell-based; details: Table 7, Strain ID B (Table 6): S. epidermidis Step_14990; in µg/mL (unit assumed)
Protocol: as §1, §2, §3, §4
as §1, with “8” for “4”
as §5

[5] = system: Staphylococcus epidermidis Step_f50654; format: cell-based; details: Table 7, Strain ID C (Table 6): S. epidermidis Step_f50654; in µg/mL (unit assumed)
Protocol: as §1, §2, §3, §4
as §1, with “8” for “4”
as §5

[6] = system: Streptococcus pneumoniae Stpn_Erm S 4297; format: cell-based; details: Table 7, Strain ID J (Table 6): S. pneumoniae Stpn_Erm S 4297
Protocol: as §1, §2, §3, §4
as §1, with “8” for “4”
as §5

[7] = system: Streptococcus pneumoniae Stpn_Mef S 3427; format: cell-based; details: Table 7, Strain ID L (Table 6): S. pneumoniae Stpn_Mef S 3427
Protocol: as §1, §2, §3, §4
as §1, with “8” for “4”
as §5

[8] = system: Streptococcus pyogenes Stpy_8668; format: cell-based; details: Table 7, Strain ID E (Table 6): S. pyogenes Stpy_8668
Protocol: as §1, §2, §3, §4
as §1, with “8” for “4”
as §5

[9] = system: S. pneumoniae Stpn_Erm 6849; format: cell-based, Streptococcus pneumoniae; details: Table 7, Strain ID I (Table 6): S. pneumoniae Stpn_Erm 6849
Protocol: as §1, §2, §3, §4

[10] = system: Streptococcus pneumoniae Stpn_Mef 5654; format: cell-based; details: Table 7, Strain ID K (Table 6): S. pneumoniae Stpn_Mef 5654; in µg/mL (unit assumed)
Protocol: as §1, §2, §3, §4
as §1, with “8” for “4”
as §5

[11] = system: Streptococcus pneumoniae Stpn_49619; format: cell-based; details: Table 7, Strain ID F (Table 6): S. pneumoniae Stpn_49619
Protocol: as §1, §2, §3, §4
as §1, with “8” for “4”
as §5

[12] = system: Streptococcus pneumoniae Stpn_297-749; format: cell-based; details: Table 7, Strain ID G (Table 6): S. pneumoniae Stpn_297-749
Protocol: as §1, §2, §3, §4
as §1, with “8” for “4”
as §5

[13] = system: Streptococcus pneumoniae Stpn_280-962; format: cell-based; details: Table 7, Strain ID H (Table 6): S. pneumoniae Stpn_280-962
Protocol: as §1, §2, §3, §4
as §1, with “8” for “4”
as §5

Row | Compound | MIC ([1]; in µg/mL (unit assumed)) | MIC [2] | MIC [3] | MIC [4] | MIC [5] | MIC [6] | MIC [7] | MIC [8] | MIC [9] | MIC [10] | MIC ([6]; unit assumed) | MIC ([7]; in µg/mL (unit assumed)) | MIC ([8]; unit assumed) | MIC [11] | MIC [12] | MIC [13] | MIC ([9]; unit assumed) | MIC [1] | MIC ([11]; unit assumed) | MIC ([13]; unit assumed)
1 | CC[C@H]1OC(=O)[C@@](C)(F)C(=O)[C@H](C)[C@@H](OC2O[C@H](C)C[C@H](N(C)C)[C@H]2O)[C@@](C)(OC)C[C@@H](C)C(=O)[C@H](C)[C@H]2N(CCCCc3ccc4ccccc4n3)C(=O)O[C@]12CC (stereo partly drawn) [65 (1), (3aS,4R,7S,9R,10R,11S,13R,15R,15aR)-3a,4-DIETHYL-7-FLUORO-11-METHOXY-7,9,11,13,15-PENTAMETHYL-2,6,8,14-TETRAOXO-1-(4-QUINOLIN-2-YLBUTYL)TETRADECAHYDRO-2H-OXACYCLOTETRADECINO[4,3-D][1,3]OXAZOL-10-YL-3,4,6-TRIDEOXY-3-(DIMETHYLAMINO)-D-XYLO-HEXOPYRANOSIDE] | 0.1 | 3.13 µg/mL (≈ 3.78 µM) | 0.2 | 0.2 | 0.2 | =0.05 | =0.05 | =0.05 | =0.05 | 0.2 | – | – | – | – | – | – | – | – | – | –
2 | C/C=C/[C@]12OC(=O)N(CCCCn3cnc(-c4cccnc4)c3)[C@@H]1[C@@H](C)C(=O)[C@H](C)C[C@](C)(OC)[C@H](OC1O[C@H](C)C[C@H](N(C)C)[C@H]1O)[C@@H](C)C(=O)[C@@H](C)C(=O)O[C@@H]2CC (stereo partly drawn) [65 (2), (3aS,4R,7R,9R,10R,11S,13R,15R,15aR)-4-ETHYL-11-METHOXY-7,9,11,13,15-PENTAMETHYL-2,6,8,14-TETRAOXO-3a-[(1E)-PROP-1-ENYL]-1-[4-(4-PYRIDIN-3-YL-1H-IMIDAZOL-1-YL)BUTYL]TETRADECAHYDRO-1H-OXACYCLOTETRADECINO[4,3-D][1,3]OXAZOL-10-YL 3,4,6-TRIDEOXY-3-(DIMETHYLAMINO)-D-XYLO-HEXOPYRANOSIDE] | 0.78 | 25 µg/mL (≈ 29.8 µM) | 3.13 | 3.13 | 3.13 | – | – | – | – | 0.78 | 0.4 µg/mL (≈ 0.477 µM) | 0.2 | 0.2 µg/mL (≈ 0.239 µM) | =0.05 | =0.05 | =0.05 | 0.78 µg/mL (≈ 0.931 µM) | – | – | –
3 | CCC1OC(=O)C(C)C(=O)C(C)C(OC2OC(C)CC(N(C)C)C2O)C(C)(OC)CC(C)C(=O)C(C)C2C1OC(=O)N2CCCCn1ccc2ncccc21 (stereo not drawn) [Compound 20m] | – | 1.56 µg/mL (≈ 2.02 µM) | 0.2 | 0.1 | 0.2 | =0.05 | =0.05 | =0.05 | – | 0.2 | – | – | – | =0.05 | =0.05 | =0.05 | 0.2 µg/mL (≈ 0.259 µM) | =0.05 | – | –
4 | CCC1OC(=O)C(C)C(=O)C(C)C(OC2OC(C)CC(N(C)C)C2O)C(C)(OC)CC(C)C(=O)C(C)C2C1OC(=O)N2CCCCc1cnc2ccccc2c1 (stereo not drawn) [Compound 20n] | 0.1 | 6.25 µg/mL (≈ 7.99 µM) | 0.4 | 0.2 | 0.4 | – | – | =0.05 | – | 0.2 | 0.1 µg/mL (≈ 0.128 µM) | 0.1 | – | =0.05 | =0.05 | =0.05 | 0.4 µg/mL (≈ 0.512 µM) | – | – | –
5 | CCC1OC(=O)C(C)C(=O)C(C)C(OC2OC(C)CC(N(C)C)C2O)C(C)(OC)CC(C)C(=O)C(C)C2C1OC(=O)N2CCCCc1cc(C)nc2ccccc12 (stereo not drawn) [Compound 20o] | 0.1 | 3.13 µg/mL (≈ 3.93 µM) | 0.2 | 0.2 | 0.2 | – | – | =0.05 | – | 0.2 | 0.1 µg/mL (≈ 0.126 µM) | 0.1 | – | =0.05 | =0.05 | =0.05 | 1.56 µg/mL (≈ 1.96 µM) | – | – | –
6 | CCC1OC(=O)C(C)C(=O)C(C)C(OC2OC(C)CC(N(C)C)C2O)C(C)(OC)CC(C)C(=O)C(C)C2C1OC(=O)N2CCCCc1cc(C(F)(F)F)nc2ccccc12 (stereo not drawn) [Compound 20p] | 0.2 | 6.25 µg/mL (≈ 7.35 µM) | 0.4 | 0.2 | 0.4 | – | – | – | – | 0.78 | 0.78 µg/mL (≈ 0.918 µM) | 0.2 | 0.1 µg/mL (≈ 0.118 µM) | – | =0.05 | – | 6.25 µg/mL (≈ 7.35 µM) | – | 0.1 µg/mL (≈ 0.118 µM) | 0.1 µg/mL (≈ 0.118 µM)
7 | CC[C@H]1OC(=O)[C@H](C)C(=O)[C@H](C)[C@@H](OC2O[C@H](C)C[C@H](N(C)C)[C@H]2O)[C@@](C)(OC)C[C@@H](C)C(=O)[C@H](C)[C@H]2N(CCCCn3cc(-c4cccnc4)nc3C)C(=O)O[C@]12CC (stereo partly drawn) [Example 20, (3aS,4R,7R,9R,10R,11S,13R,15R,15aR)-3a,4-diethyl-11-methoxy-7,9,11,13,15-pentamethyl-1-[4-(2-methyl-4-pyridin-3-yl-1H-imidazol-1-yl)butyl]-2,6,8,14-tetraoxotetradecahydro-2H-oxacyclotetradecino[4,3-d][1,3]oxazol-10-yl-3,4,6-trideoxy-3-(dimethylamino)-D-xylo-hexopyranoside] | – | – | – | – | – | =0.05 | =0.05 | =0.05 | =0.5 | – | – | – | – | =0.05 | =0.05 | =0.05 | – | – | – | –
8 | CC[C@H]1OC(=O)[C@H](C)C(=O)[C@H](C)[C@@H](OC2O[C@H](C)C[C@H](N(C)C)[C@H]2O)[C@@](C)(OC)C[C@@H](C)C(=O)[C@H](C)[C@H]2N(CCCCn3cnc(-c4ccc(F)nc4)c3)C(=O)O[C@]12CC (stereo partly drawn) [Example 33, (3aS,4R,7R,9R,10R,11S,13R,15R,15aR)-3a,4-DIETHYL-1-14-[4-(6-FLUOROPYRIDIN-3-YL)-1H-IMIDAZOL-1-YL]BUTYL}-11-METHOXY-7,9,11,13,15-PENTAMETHYL-2,6,8,14-TETRAOXOTETRADECAHYDRO-1H-OXACYCLOTETRADECINO[4,3-D][1,3]OXAZOL-10-YL-3,4,6-TRIDEOXY-3-(DIMETHYLAMINO)-D-XYLO-HEXOPYRANOSIDE] | – | – | – | – | – | – | – | =0.05 | =0.05 | – | – | – | – | – | =0.05 | =0.05 | – | – | – | –
9 | CC[C@H]1OC(=O)[C@H](C)C(=O)[C@H](C)[C@@H](OC2O[C@H](C)C[C@H](N(C)C)[C@H]2O)[C@@](C)(OC)C[C@@H](C)C(=O)[C@H](C)[C@H]2N(CCCCc3ncc(-c4cccc(N)c4)s3)C(=O)O[C@]12CC (stereo partly drawn) [Example 34, (3aS,4R,7R,9R,10R,11S,13R,15R,15aR)-1-{4-[5-(3-AMINOPHENYL)-1,3-THIAZOL-2-YL]BUTYL}-3a,4-DIETHYL-11-METHOXY-7,9,11,13,15-PENTAMETHYL-2,6,8,14-TETRAOXOTETRADECAHYDRO-1H-OXACYCLOTETRADECINO[4,3-D][1,3]OXAZOL-10-YL 3,4,6-TRIDEOXY-3-(DIMETHYLAMINO)-D-XYLO-HEXOPYRANOSIDE] | – | – | – | – | – | – | – | =0.05 | =0.05 | – | – | – | – | – | =0.05 | =0.05 | – | – | – | –
